Data taken from patent US20110294778A1, “HEPATITIS C INHIBITOR COMPOUNDS” (priority 2009, published 2011).
Like-named read-outs stand apart in the source and are kept apart here.

Key:
[1] = test system: HCV genotype 1a (strain H77) subgenomic replicon with NS3 resistance mutation R155K in Huh-7 cells; experiment: HCV replicon RNA replication assay (NS3 protease variants), genotype 1a R155K; assay type: cell-based; details: Hepatitis C virus
[2] = test system: HCV genotype 1b (Con-1) subgenomic replicon with NS3 resistance mutation D168V in Huh-7 cells; experiment: HCV replicon RNA replication assay (NS3 protease variants), genotype 1b D168V; assay type: cell-based; details: Hepatitis C virus
[3] = Huh-7, 72 h, read-out: R155K 1a EC50 (nM)
[4] = Huh-7, 72 h, read-out: D168V 1b EC50 (nM)

Structure (SMILES)	EC50 [1, 3] [nM]	EC50 [2, 4] [nM]	EC50 ([1]; Huh-7, read-out: R155K 1a Ec50 (nM)) [nM]	EC50 ([2]; Huh-7, read-out: D168V 1b Ec50 (nM)) [nM]
COCCn1ccc(C(=O)N[C@H]2CCCCC/C=C\[C@@H]3C[C@@]3(C(=O)NS(=O)(=O)C3CC3)NC(=O)[C@@H]3C[C@@H](Oc4cc(OC(C)C)nc5c(C)c(OC)ccc45)CN3C2=O)n1 [Compound 1006, (2R,6S,12Z,13aS,14aR,16aS)-N-(cyclopropylsulfonyl)-6-({[1-(2-methoxyethyl)-1H-pyrazol-3-yl]carbonyl}amino)-2-{[7-methoxy-8-methyl-2-(propan-2-yloxy)quinolin-4-yl]oxy}-5,16-dioxo-1,2,3,6,7,8,9,10,11,13a,14,15,16,16a-tetradecahydrocyclopropa[e]pyrrolo[1,2-a][1,4]diazacyclopentadecine-14a(5H)-carboxamide]	7	0.33	–	–
CCn1ccc(C(=O)N[C@H]2CCCCC/C=C\[C@@H]3C[C@@]3(C(=O)NS(=O)(=O)C3(C)CC3)NC(=O)[C@@H]3C[C@@H](Oc4cc(OC(C)C)nc5c(C)c(OC)ccc45)CN3C2=O)n1 [Compound 1019, (2R,6S,12Z,13aS,14aR,16aS)-6-{[(1-ethyl-1H-pyrazol-3-yl)carbonyl]amino}-2-{[7-methoxy-8-methyl-2-(propan-2-yloxy)quinolin-4-yl]oxy}-N-[(1-methylcyclopropyl)sulfonyl]-5,16-dioxo-1,2,3,6,7,8,9,10,11,13a,14,15,16,16a-tetradecahydrocyclopropa[e]pyrrolo[1,2-a][1,4]diazacyclopentadecine-14a(5H)-carboxamide]	0.88	0.16	–	–
Cc1ccc(C(=O)N[C@H]2CCCCC/C=C\[C@@H]3C[C@@]3(C(=O)NS(=O)(=O)C3CC3)NC(=O)[C@@H]3C[C@@H](Oc4cc(OC(C)C)nc5c(C)c(O)ccc45)CN3C2=O)s1 [Compound 1036, (2R,6S,12Z,13aS,14aR,16aS)-N-(cyclopropylsulfonyl)-2-{[7-hydroxy-8-methyl-2-(propan-2-yloxy)quinolin-4-yl]oxy}-6-{[(5-methylthiophen-2-yl)carbonyl]amino}-5,16-dioxo-1,2,3,6,7,8,9,10,11,13a,14,15,16,16a-tetradecahydrocyclopropa[e]pyrrolo[1,2-a][1,4]diazacyclopentadecine-14a(5H)-carboxamide]	3.2	1.3	–	–
CC[C@@H]1C[C@]1(NC(=O)[C@@H]1C[C@@H]2CN1C(=O)[C@H](C(C)(C)C)NC(=O)OCC(C)(C)CCCCc1cccc3c1CN(C3)C(=O)O2)C(=O)NS(=O)(=O)C1CC1 [reference compound]	–	–	1200	4400
COc1c(F)ccc2c(O[C@@H]3C[C@H]4C(=O)N[C@]5(C(=O)NS(=O)(=O)C6(C)CC6)C[C@H]5/C=C\CCCCC[C@H](NC(=O)N(C)C)C(=O)N4C3)cc(OC(C)C)nc12 [Compound 2002, (2R,6S,12Z,13aS,14aR,16aS)-6-[(dimethylcarbamoyl)amino]-2-{[7-fluoro-8-methoxy-2-(propan-2-yloxy)quinolin-4-yl]oxy}-N-[(1-methylcyclopropyl)sulfonyl]-5,16-dioxo-1,2,3,6,7,8,9,10,11,13a,14,15,16,16a-tetradecahydrocyclopropa[e]pyrrolo[1,2-a][1,4]diazacyclopentadecine-14a(5H)-carboxamide]	4.7	0.41	–	–
COc1ccc2c(O[C@@H]3C[C@H]4C(=O)N[C@]5(C(=O)NS(=O)(=O)C6CC6)C[C@H]5/C=C\CCCCC[C@H](NC(=O)c5ccc(C)s5)C(=O)N4C3)cc(OCC(F)(F)F)nc2c1C [Compound 1035, (2R,6S,12Z,13aS,14aR,16aS)-N-(cyclopropylsulfonyl)-2-{[7-methoxy-8-methyl-2-(2,2,2-trifluoroethoxy)quinolin-4-yl)oxy}-6-{[(5-methylthiophen-2-yl)carbonyl]amino}-5,16-dioxo-1,2,3,6,7,8,9,10,11,13a,14,15,16,16a-tetradecahydrocyclopropa[e]pyrrolo[1,2-a][1,4]diazacyclopentadecine-14a(5H)-carboxamide]	8.2	0.77	–	–
CC(C)Oc1cc(O[C@@H]2C[C@H]3C(=O)N[C@]4(C(=O)NS(=O)(=O)C5(C)CC5)C[C@H]4/C=C\CCCCC[C@H](NC(=O)c4ccn(C)n4)C(=O)N3C2)c2ccc(F)c(F)c2n1 [Compound 1008, (2R,6S,12Z,13aS,14aR,16aS)-2-{[7,8-difluoro-2-(propan-2-yloxy)quinolin-4-yl]oxy}-N-[(1-methylcyclopropyl)sulfonyl]-6-{[(1-methyl-1H-pyrazol-3-yl)carbonyl]amino}-5,16-dioxo-1,2,3,6,7,8,9,10,11,13a,14,15,16,16a-tetradecahydrocyclopropa[e]pyrrolo[1,2-a][1,4]diazacyclopentadecine-14a(5H)-carboxamide]	2.9	0.35	–	–
COc1ccc2c(O[C@@H]3C[C@H]4C(=O)N[C@]5(C(=O)NS(=O)(=O)C6(C)CC6)C[C@H]5/C=C\CCCCC[C@H](NC(=O)N(C)C)C(=O)N4C3)cc(OC(C)C)nc2c1Br [Compound 2016, (2R,6S,12Z,13aS,14aR,16aS)-2-{[8-bromo-7-methoxy-2-(propan-2-yloxy)quinolin-4-yl]oxy}-6-[(dimethylcarbamoyl)amino]-N-[(1-methylcyclopropyl)sulfonyl]-5,16-dioxo-1,2,3,6,7,8,9,10,11,13a,14,15,16,16a-tetradecahydrocyclopropa[e]pyrrolo[1,2-a][1,4]diazacyclopentadecine-14a(5H)-carboxamide]	2	1	–	–
COc1ccc2c(O[C@@H]3C[C@H]4C(=O)N[C@]5(C(=O)NS(=O)(=O)C6(C)CC6)C[C@H]5/C=C\CCCCC[C@H](NC(=O)N5CCC5)C(=O)N4C3)cc(OC(C)C)nc2c1C [Compound 2001, (2R,6S,12Z,13aS,14aR,16aS)-6-[(azetidin-1-ylcarbonyl)amino]-2-{[7-methoxy-8-methyl-2-(propan-2-yloxy)quinolin-4-yl]oxy}-N-[(1-methylcyclopropyl)sulfonyl]-5,16-dioxo-1,2,3,6,7,8,9,10,11,13a,14,15,16,16a-tetradecahydrocyclopropa[e]pyrrolo[1,2-a][1,4]diazacyclopentadecine-14a(5H)-carboxamide]	2.3	0.48	–	–
COc1ccc2c(O[C@@H]3C[C@H]4C(=O)N[C@]5(C(=O)NS(=O)(=O)C6(C)CC6)C[C@H]5/C=C\CCCCC[C@H](NC(=O)N5CC(OC)C5)C(=O)N4C3)cc(OC(C)C)nc2c1C [Compound 2003, (2R,6S,12Z,13aS,14aR,16aS)-6-{[(3-methoxyazetidin-1-yl)carbonyl]amino}-2-{[7-methoxy-8-methyl-2-(propan-2-yloxy)quinolin-4-yl]oxy}-N-[(1-methylcyclopropyl)sulfonyl]-5,16-dioxo-1,2,3,6,7,8,9,10,11,13a,14,15,16,16a-tetradecahydrocyclopropa[e]pyrrolo[1,2-a][1,4]diazacyclopentadecine-14a(5H)-carboxamide]	9.1	0.47	–	–
COc1ccc2c(O[C@@H]3C[C@H]4C(=O)N[C@]5(C(=O)NS(=O)(=O)C6(C)CC6)C[C@H]5/C=C\CCCCC[C@H](NC(=O)N5CCC5)C(=O)N4C3)cc(OCC(F)(F)F)nc2c1C [Compound 2017, (2R,6S,12Z,13aS,14aR,16aS)-6-[(azetidin-1-ylcarbonyl)amino]-2-{[7-methoxy-8-methyl-2-(2,2,2-trifluoroethoxy)quinolin-4-yl]oxy}-N-[(1-methylcyclopropyl)sulfonyl]-5,16-dioxo-1,2,3,6,7,8,9,10,11,13a,14,15,16,16a-tetradecahydrocyclopropa[e]pyrrolo[1,2-a][1,4]diazacyclopentadecine-14a(5H)-carboxamide]	6.3	1.1	–	–
